Assay results published in the RepoRT retention time repository.

Assay: RP, Thermo Scientific Hypersil GOLD, 1.9 µm, 40 °C, 0.4 mL/min; A: water + 0.1% formic acid, pH 3; B: acetonitrile + 0.1% formic acid, pH 3; gradient (min/%B) 0/0 1/0 11/100 13/100 14/0 16/0
Conditions: stereoisomer not certain

In the case of C=C(C)C1CCC2(C(=O)O)CCC3(C)C(CCC4C5(C)CCC(O)C(C)(C)C5CCC43C)C12 (stereo unspecified) [Betulinic acid], the LC retention time is reported as 11.2 min.

Work on Cn1cncc1CC(NC(=O)CCN)C(=O)O (stereo unspecified) [ANSERINE] yielded an LC retention time of 0.57 min.

In the case of Nc1ccn(C2CC(O)C(COP(=O)([O-])OP(=O)([O-])[O-])O2)c(=O)n1 (stereo unspecified) [DEOXYCYTIDINE-DIPHOSPHATE], the LC retention time is reported as 1.13 min.

For CCC(O)C(=O)[O-] (stereo unspecified) [2-HYDROXYBUTYRATE], the LC retention time was 1.71 min.

In the case of Nc1cncc(C(=O)O)c1 [5-Aminopyridine-3-carboxylic acid], the LC retention time is reported as 0.74 min.

CC1=C(/C=C/C(C)=C/C=C/C(C)=C/C=C/C=C(C)/C=C/C=C(C)/C=C/C2=C(C)CCCC2(C)C)C(C)(C)CCC1 [BETA-CAROTENE] gave an LC retention time of 9.23 min.

With O=C(C=Cc1ccc(O)c(O)c1)OC(Cc1ccc(O)c(O)c1)C(=O)O (stereo unspecified) [ROSMARINATE] the LC retention time was 6.02 min.

Work on O=C(O)CCCCCCCCCO [10-HYDROXYDECANOATE] yielded an LC retention time of 6.79 min.

For O=C(O)C(=O)C(=O)O [MESOXALATE], the LC retention time was 2.05 min.

In the case of O=C([O-])c1ccccn1 [PICOLINATE], the LC retention time is reported as 0.82 min.

For C=C(C)C1CC=C(C)C(=O)C1 [(R)-(-)-Carvone], the LC retention time was 8.19 min.

For Nc1cccc2ccccc12 [1-NAPHTHYLAMINE], the LC retention time was 5.87 min.

Compound NC(=O)c1ncn(C2OC(COP(=O)(O)O)C(O)C2O)c1N (stereo unspecified) [AICAR] has an LC retention time of 0.76 min.

With CC(O)(CC(=O)O)C(=O)O (stereo unspecified) [CITRAMALATE] the LC retention time was 1.23 min.

Compound Nc1ccccc1O [2-AMINOPHENOL] has an LC retention time of 0.9 min.

In the case of CC12CCC(=O)C=C1CCC1C2C(=O)CC2(C)C1CCC2(O)C(=O)CO (stereo unspecified) [CORTISONE], the LC retention time is reported as 6.81 min.

Work on O=C(O)C1CCCN1 (stereo unspecified) [PROLINE] yielded an LC retention time of 0.69 min.

Work on Nc1ccccc1S(=O)(=O)O [ANILINE-2-SULFONATE] yielded an LC retention time of 1.42 min.

Work on CC12CCC(=O)C=C1CCC1C2C(O)CC2(C)C(C(=O)CO)CCC12 (stereo unspecified) [CORTICOSTERONE] yielded an LC retention time of 7.47 min.

Oc1ccccc1 [PHENOL] gave an LC retention time of 6.21 min.

Nc1nc2c(ncn2C2OC(CO)C(O)C2O)c(=O)[nH]1 (stereo unspecified) [GUANOSINE] gave an LC retention time of 1.26 min.

With CC(C)CC(NC(=O)C1CCCN1)C(=O)O (stereo unspecified) [Pro-Leu] the LC retention time was 4.4 min.

NC(C(=O)O)c1ccccc1 (stereo unspecified) [2-Phenylglycine] showed an LC retention time of 0.83 min.

Work on O=c1c(O)c(-c2ccc(O)cc2O)oc2cc(O)cc(O)c12 [Morin hydrate] yielded an LC retention time of 6.29 min.

In the case of CN(CC(=O)O)C(=N)N [CREATINE], the LC retention time is reported as 0.66 min.

O=CC(O)CO (stereo unspecified) [GLYCERALDEHYDE] gave an LC retention time of 0.64 min.

With NC(Cc1c[nH]c2ccc(O)cc12)C(=O)O (stereo unspecified) [5-HYDROXYTRYPTOPHAN] the LC retention time was 1.99 min.

Work on CNCC(=O)O [SARCOSINE] yielded an LC retention time of 0.62 min.

Work on O=c1cccc[nH]1 [2-HYDROXYPYRIDINE] yielded an LC retention time of 1.6 min.

With CNCC(O)c1ccc(O)c(O)c1 (stereo unspecified) [EPINEPHRINE] the LC retention time was 0.74 min.

Nc1ncnc2c1ncn2C1OC(COP(=O)(O)OP(=O)(O)OC2OC(CO)C(O)C(O)C2O)C(O)C1O (stereo unspecified) [ADP-GLUCOSE] gave an LC retention time of 1.27 min.

Nc1ccccc1C(=O)O [ANTHRANILATE] gave an LC retention time of 5.29 min.

Compound Cc1ccncc1 [4-Methylpyridine (4-Picoline)] has an LC retention time of 0.87 min.

With NCCC(=O)O [BETA-ALANINE] the LC retention time was 0.62 min.

Work on Cn1cnc2nc(N)[nH]c(=O)c21 [7-methylguanine] yielded an LC retention time of 0.82 min.

OCCNCCO [DIETHANOLAMINE] gave an LC retention time of 0.6 min.

With NC(=O)c1ccc[n+](C2OC(COP(=O)(O)OP(=O)(O)OCC3OC(n4cnc5c(N)ncnc54)C(O)C3O)C(O)C2O)c1 (stereo not drawn) [BETA-NICOTINAMIDE ADENINE DINUCLEOTIDE] the LC retention time was 0.78 min.

With CC(C)C(O)C(=O)O (stereo unspecified) the LC retention time was 4.13 min.

Nc1ncnc2c1ncn2C1OC(CO)C2OP(=O)(O)OC21 (stereo unspecified) [ADENOSINE 2'-3'-CYCLIC PHOSPHATE] gave an LC retention time of 0.83 min.

With CC(CCC(=O)O)C1CCC2C3CCC4CC(O)CCC4(C)C3CC(=O)C12C (stereo unspecified) [5b-cholanic acid-3a-OL-12-ONE] the LC retention time was 8.76 min.

O=C(O)c1ccc(CO)o1 [5-hydroxymethyl-2-furancarboxylic acid] gave an LC retention time of 3.49 min.

Work on O=C(O)c1cccc(O)c1 [3-HYDROXYBENZOATE] yielded an LC retention time of 5.04 min.

For CC(=O)NCC(=O)O [N-ACETYLGLYCINE], the LC retention time was 0.83 min.

CC(C)(CCC(=O)O)C(=O)O [2-2-Dimethylglutaric acid] gave an LC retention time of 5.21 min.

With NC(=O)C=CC(=O)O [MALEAMATE] the LC retention time was 0.82 min.

With O=C([O-])c1c[nH]c(=O)[nH]c1=O [URACIL 5-CARBOXYLATE] the LC retention time was 0.87 min.

With NC1(C(=O)O)CC1 [1-AMINOCYCLOPROPANECARBOXYLATE] the LC retention time was 0.64 min.

In the case of NC(CSCC(=O)O)C(=O)O (stereo unspecified) [S-CARBOXYMETHYLCYSTEINE], the LC retention time is reported as 0.68 min.

For CC(=O)NCCc1c[nH]c2ccc(O)cc12 [N-ACETYLSEROTONIN], the LC retention time was 4.86 min.

With NC1C(O)OC(COP(=O)(O)O)C(O)C1O (stereo unspecified) [GLUCOSAMINE 6-PHOSPHATE] the LC retention time was 0.6 min.

Work on OC1COC(O)C(O)C1O (stereo unspecified) [XYLOSE] yielded an LC retention time of 0.64 min.

Compound O=C(O)CNC(=O)c1ccccc1O [o-Hydroxyhippuric acid] has an LC retention time of 5.5 min.

CC(=O)Oc1cccc(O)c1 [RESORCINOL MONOACETATE] showed an LC retention time of 6.1 min.

In the case of NCC(=O)NCC(=O)O [Gly-Gly], the LC retention time is reported as 0.62 min.

Compound CCOC(=O)Cc1c[nH]c2ccccc12 [ETHYL 3-INDOLEACETATE] has an LC retention time of 8.03 min.

Compound CCCCCCCCCCCCCCCCCCOCC(O)COP(=O)([O-])OCC[N+](C)(C)C (stereo unspecified) [C18_LysoPAF] has an LC retention time of 10.4 min.

Work on CCCCC(CC)COC(=O)c1ccccc1C(=O)OCC(CC)CCCC (stereo unspecified) [BIS(2-ETHYLHEXYL)PHTHALATE] yielded an LC retention time of 13 min.

For O=C(O)c1cccc[n+]1[O-] [Picolinic acid N-oxide], the LC retention time was 2.04 min.

With CC(CCC(=O)NCCS(=O)(=O)O)C1CCC2C3CCC4CC(O)CCC4(C)C3CCC12C (stereo unspecified) [LITHOCHOLYLTAURINE] the LC retention time was 8.73 min.

In the case of O=c1ccn(C2OC(CO)C(O)C2O)c(=O)[nH]1 (stereo unspecified) [URIDINE], the LC retention time is reported as 0.82 min.

With Cc1ncc(CO)c(C=O)c1O [PYRIDOXAL] the LC retention time was 0.72 min.

For O=C(O)Cc1cccc(O)c1 [3-HYDROXYPHENYLACETATE], the LC retention time was 5.11 min.

Work on NC(C(=O)O)C(O)C(O)C(O)CO (stereo unspecified) [GLUCOSAMINATE] yielded an LC retention time of 0.62 min.

Work on O=c1ccc2cc(O)ccc2[nH]1 [2-6-quinolinediol] yielded an LC retention time of 4.44 min.

For CCCCCCCCCCCCCCCCCCC(=O)O [nonadecanoic acid], the LC retention time was 0.68 min.

Work on O=C[C@H](O)[C@H](O)CO [D-(-)-Erythrose] yielded an LC retention time of 0.7 min.

O=C(O)Cc1cnc[nH]1 [4-IMIDAZOLEACETATE] gave an LC retention time of 0.67 min.

With CNC(CC(=O)O)C(=O)O (stereo unspecified) [N-METHYLASPARTATE] the LC retention time was 0.63 min.

Compound O=C(OC1Cc2c(O)cc(O)cc2OC1c1cc(O)c(O)c(O)c1)c1cc(O)c(O)c(O)c1 (single isomer, unassigned; (-)) [(-)-Epigallocatechin gallate] has an LC retention time of 5.05 min.

Work on Nc1ncccc1C(=O)O [2-Aminopyridine-3-carboxylic acid] yielded an LC retention time of 0.81 min.

In the case of c1ncc2[nH]cnc2n1 [PURINE], the LC retention time is reported as 0.81 min.
